Experimental data: patent publication US20250101023A1, “HETEROARYL DERIVATIVE AND USES THEREOF” (IUCF-HYU (INDUSTRY-UNIVERSITY COOPERATION FOUNDATION …, priority 2022, published 2025)

Assays:
Assay type in all cases: biochemical
CLK2 = CLK2 (Homo sapiens (Human), UniProt P49760); test: Kinome-wide profiling; conditions: read-out: % Residual Activity (mean)
SGK3/SGKL = SGK3/SGKL (Homo sapiens (Human), UniProt Q96BR1); test: Kinome-wide profiling; conditions: read-out: % Residual Activity (mean)
CDK7/cyclin H = CDK7/cyclin H (Homo sapiens (Human), UniProt P50613); test: Kinome-wide profiling; conditions: read-out: % Residual Activity (mean)
CDK7/cyclin H, sequence (P50613 whole entry): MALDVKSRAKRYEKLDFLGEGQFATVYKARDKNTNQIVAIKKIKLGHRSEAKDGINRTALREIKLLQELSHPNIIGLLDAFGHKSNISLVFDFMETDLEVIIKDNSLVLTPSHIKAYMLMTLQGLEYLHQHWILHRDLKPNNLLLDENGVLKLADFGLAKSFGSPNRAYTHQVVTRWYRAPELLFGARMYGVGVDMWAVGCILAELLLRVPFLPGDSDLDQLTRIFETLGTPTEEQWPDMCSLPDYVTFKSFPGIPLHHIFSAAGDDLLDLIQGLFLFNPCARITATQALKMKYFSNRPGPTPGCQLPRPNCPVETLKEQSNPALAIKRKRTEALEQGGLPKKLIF
CDK7/cyclin H, sequence (P51946 whole entry partner): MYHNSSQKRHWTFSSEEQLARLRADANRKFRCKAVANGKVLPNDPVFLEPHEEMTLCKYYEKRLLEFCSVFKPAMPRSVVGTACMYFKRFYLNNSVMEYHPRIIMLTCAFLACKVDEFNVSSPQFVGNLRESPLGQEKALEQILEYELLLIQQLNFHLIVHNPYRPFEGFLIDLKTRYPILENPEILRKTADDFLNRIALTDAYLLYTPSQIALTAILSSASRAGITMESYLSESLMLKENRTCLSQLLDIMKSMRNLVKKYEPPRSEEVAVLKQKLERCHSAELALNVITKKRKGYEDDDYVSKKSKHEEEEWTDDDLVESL

RON/MST1R = RON/MST1R (Homo sapiens (Human), UniProt Q04912); test: Kinome-wide profiling; conditions: read-out: % Residual Activity (mean)
JNK2 = JNK2 (Homo sapiens (Human), UniProt P45984); test: Kinome-wide profiling; conditions: read-out: % Residual Activity (mean)
JNK2, sequence (P45984 whole entry): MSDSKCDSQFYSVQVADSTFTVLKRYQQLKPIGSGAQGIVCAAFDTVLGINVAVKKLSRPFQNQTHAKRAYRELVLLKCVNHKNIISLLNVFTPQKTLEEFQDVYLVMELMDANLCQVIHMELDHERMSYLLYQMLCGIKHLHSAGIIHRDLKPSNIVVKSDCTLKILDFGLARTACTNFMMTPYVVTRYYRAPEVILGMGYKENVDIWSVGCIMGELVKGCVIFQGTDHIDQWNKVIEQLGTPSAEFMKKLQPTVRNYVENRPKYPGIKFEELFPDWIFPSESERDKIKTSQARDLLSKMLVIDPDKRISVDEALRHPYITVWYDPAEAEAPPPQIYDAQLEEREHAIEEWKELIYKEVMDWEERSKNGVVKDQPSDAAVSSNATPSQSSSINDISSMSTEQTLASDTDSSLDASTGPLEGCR

IRR/INSRR = IRR/INSRR (Homo sapiens (Human), UniProt P14616); test: Kinome-wide profiling; conditions: read-out: % Residual Activity (mean)
MEKK3 = MEKK3 (Homo sapiens (Human), UniProt Q99759); test: Kinome-wide profiling; conditions: read-out: % Residual Activity (mean)
FLT1/VEGFR1 = FLT1/VEGFR1 (Homo sapiens (Human), UniProt P17948); test: Kinome-wide profiling; conditions: read-out: % Residual Activity (mean)
CK1d = CK1d (Homo sapiens (Human), UniProt P48730); test: Kinome-wide profiling; conditions: read-out: % Residual Activity (mean)
BLK = BLK (Homo sapiens (Human), UniProt P51451); test: Kinome-wide profiling; conditions: read-out: % Residual Activity (mean)
BLK, sequence (P51451 whole entry): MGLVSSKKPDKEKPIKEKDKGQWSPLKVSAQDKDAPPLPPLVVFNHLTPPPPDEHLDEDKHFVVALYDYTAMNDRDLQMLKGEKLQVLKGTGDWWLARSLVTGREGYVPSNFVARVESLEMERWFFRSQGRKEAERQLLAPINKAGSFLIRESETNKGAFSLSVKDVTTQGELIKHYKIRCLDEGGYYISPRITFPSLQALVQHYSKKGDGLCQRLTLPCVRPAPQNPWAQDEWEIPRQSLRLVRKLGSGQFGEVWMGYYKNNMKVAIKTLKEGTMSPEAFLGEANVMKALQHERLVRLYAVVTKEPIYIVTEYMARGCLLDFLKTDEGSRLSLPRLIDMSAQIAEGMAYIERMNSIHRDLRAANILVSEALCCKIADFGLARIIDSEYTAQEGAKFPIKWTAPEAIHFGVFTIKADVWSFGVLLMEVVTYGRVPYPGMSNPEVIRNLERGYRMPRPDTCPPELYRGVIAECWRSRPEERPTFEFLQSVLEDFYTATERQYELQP

CAMK2d = CAMK2d (Homo sapiens (Human), UniProt Q13557); test: Kinome-wide profiling; conditions: read-out: % Residual Activity (mean)
FER = FER (Homo sapiens (Human), UniProt P16591); test: Kinome-wide profiling; conditions: read-out: % Residual Activity (mean)
FER, sequence (P16591 whole entry): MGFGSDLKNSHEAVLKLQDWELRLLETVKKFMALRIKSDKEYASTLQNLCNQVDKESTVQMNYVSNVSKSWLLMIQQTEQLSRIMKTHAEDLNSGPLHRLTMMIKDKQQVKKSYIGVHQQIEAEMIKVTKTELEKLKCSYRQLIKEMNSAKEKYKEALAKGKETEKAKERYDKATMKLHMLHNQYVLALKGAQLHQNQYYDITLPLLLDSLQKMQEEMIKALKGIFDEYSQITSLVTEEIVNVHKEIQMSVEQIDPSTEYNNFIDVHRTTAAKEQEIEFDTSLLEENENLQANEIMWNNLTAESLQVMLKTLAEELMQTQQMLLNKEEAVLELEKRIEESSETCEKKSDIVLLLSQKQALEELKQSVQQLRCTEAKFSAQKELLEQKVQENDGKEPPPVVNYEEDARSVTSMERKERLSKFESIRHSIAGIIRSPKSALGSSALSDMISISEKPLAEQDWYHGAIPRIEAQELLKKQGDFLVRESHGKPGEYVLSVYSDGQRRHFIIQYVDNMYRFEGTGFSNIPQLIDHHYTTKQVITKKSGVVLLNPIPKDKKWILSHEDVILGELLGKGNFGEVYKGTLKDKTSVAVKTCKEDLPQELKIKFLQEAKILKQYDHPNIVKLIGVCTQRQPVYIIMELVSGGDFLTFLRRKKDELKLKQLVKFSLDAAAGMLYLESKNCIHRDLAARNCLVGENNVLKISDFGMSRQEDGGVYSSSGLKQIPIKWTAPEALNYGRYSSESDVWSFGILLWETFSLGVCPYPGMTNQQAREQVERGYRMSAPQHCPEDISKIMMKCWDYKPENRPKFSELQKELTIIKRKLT

[1] = tested on: 371 human wild-type kinases; test: Kinome-wide inhibitory activity profiling (panel summary); conditions: 10 μM; CDK1, 2, 3, 5, 7, 9, 17, 18 complexes, LKB1, EPHA3/4/5/6, EPHB2, DYRK1A/B, MAK, MYLK4, GSK3b, FES, CHK2, PAK5, ERK1
DMPK2 = DMPK2 (Homo sapiens (Human), UniProt Q6DT37); test: Kinome-wide profiling; conditions: read-out: % Residual Activity (mean)
MRCKa/CDC42BPA = MRCKa/CDC42BPA (Homo sapiens (Human), UniProt Q5VT25); test: Kinome-wide profiling; conditions: read-out: % Residual Activity (mean)
HIPK2 = HIPK2 (Homo sapiens (Human), UniProt Q9H2X6); test: Kinome-wide profiling; conditions: read-out: % Residual Activity (mean)
DCAMKL2 = DCAMKL2 (Homo sapiens (Human), UniProt Q8N568); test: Kinome-wide profiling; conditions: read-out: % Residual Activity (mean)
TNK1 = TNK1 (Homo sapiens (Human), UniProt Q13470); test: Kinome-wide profiling; conditions: read-out: % Residual Activity (mean)
NEK9 = NEK9 (Homo sapiens (Human), UniProt Q8TD19); test: Kinome-wide profiling; conditions: read-out: % Residual Activity (mean)
NEK9, sequence (Q8TD19 whole entry): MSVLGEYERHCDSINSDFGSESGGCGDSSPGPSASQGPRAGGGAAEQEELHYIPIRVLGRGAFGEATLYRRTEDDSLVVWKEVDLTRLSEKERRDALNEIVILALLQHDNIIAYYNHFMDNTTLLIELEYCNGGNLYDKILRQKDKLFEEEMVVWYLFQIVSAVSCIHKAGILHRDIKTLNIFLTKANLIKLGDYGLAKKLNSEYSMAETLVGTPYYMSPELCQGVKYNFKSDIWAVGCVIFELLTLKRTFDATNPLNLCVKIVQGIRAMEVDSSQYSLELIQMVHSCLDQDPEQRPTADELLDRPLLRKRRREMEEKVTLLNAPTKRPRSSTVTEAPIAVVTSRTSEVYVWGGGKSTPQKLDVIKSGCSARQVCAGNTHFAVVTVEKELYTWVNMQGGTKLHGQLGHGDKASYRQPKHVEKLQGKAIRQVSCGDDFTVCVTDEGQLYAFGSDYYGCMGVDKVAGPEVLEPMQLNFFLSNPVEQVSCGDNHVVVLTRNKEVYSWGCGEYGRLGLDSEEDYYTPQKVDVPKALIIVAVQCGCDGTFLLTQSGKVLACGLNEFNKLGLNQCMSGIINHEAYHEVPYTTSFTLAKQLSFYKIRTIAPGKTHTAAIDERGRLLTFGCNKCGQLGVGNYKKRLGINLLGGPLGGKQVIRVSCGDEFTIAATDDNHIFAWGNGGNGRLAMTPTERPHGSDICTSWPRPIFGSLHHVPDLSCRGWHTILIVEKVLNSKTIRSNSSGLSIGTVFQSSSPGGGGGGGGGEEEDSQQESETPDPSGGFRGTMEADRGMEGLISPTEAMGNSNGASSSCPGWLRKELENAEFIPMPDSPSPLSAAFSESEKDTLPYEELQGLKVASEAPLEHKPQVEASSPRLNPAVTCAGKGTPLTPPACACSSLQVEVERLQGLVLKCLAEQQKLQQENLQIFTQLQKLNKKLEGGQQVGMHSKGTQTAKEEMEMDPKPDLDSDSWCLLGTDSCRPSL

ERN2/IRE2 = ERN2/IRE2 (Homo sapiens (Human), UniProt Q76MJ5); test: Kinome-wide profiling; conditions: read-out: % Residual Activity (mean)
CDK4/cyclin D1 = CDK4/cyclin D1 (Homo sapiens (Human), UniProt P11802); test: Kinome-wide profiling; conditions: read-out: % Residual Activity (mean)
JAK3 = JAK3 (Homo sapiens (Human), UniProt P52333); test: Kinome-wide profiling; conditions: read-out: % Residual Activity (mean)
MELK = MELK (Homo sapiens (Human), UniProt Q14680); test: Kinome-wide profiling; conditions: read-out: % Residual Activity (mean)
MELK, sequence (Q14680 whole entry): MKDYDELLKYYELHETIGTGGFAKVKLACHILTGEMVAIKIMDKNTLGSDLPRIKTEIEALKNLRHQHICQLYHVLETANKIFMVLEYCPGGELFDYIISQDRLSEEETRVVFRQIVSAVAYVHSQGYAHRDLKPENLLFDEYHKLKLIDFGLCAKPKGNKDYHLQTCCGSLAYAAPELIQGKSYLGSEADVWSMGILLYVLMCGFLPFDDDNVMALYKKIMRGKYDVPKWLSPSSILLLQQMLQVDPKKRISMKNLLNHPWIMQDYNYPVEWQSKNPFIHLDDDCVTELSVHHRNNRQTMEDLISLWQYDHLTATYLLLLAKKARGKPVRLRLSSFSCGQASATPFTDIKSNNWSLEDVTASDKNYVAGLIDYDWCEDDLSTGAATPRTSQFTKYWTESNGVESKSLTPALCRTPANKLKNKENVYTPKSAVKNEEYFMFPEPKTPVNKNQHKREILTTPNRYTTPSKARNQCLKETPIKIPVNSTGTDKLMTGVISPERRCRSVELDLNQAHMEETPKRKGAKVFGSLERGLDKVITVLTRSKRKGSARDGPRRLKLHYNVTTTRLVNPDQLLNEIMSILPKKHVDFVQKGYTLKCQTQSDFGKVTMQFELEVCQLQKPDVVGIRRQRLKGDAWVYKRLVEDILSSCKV

CAMK1a = CAMK1a (Homo sapiens (Human), UniProt Q14012); test: Kinome-wide profiling; conditions: read-out: % Residual Activity (mean)
PAK4 = PAK4 (Homo sapiens (Human), UniProt O96013); test: Kinome-wide profiling; conditions: read-out: % Residual Activity (mean)
CDK3/cyclin E2 = CDK3/cyclin E2 (Homo sapiens (Human), UniProt Q00526); test: Kinome-wide profiling; conditions: read-out: % Residual Activity (mean)
TRKC = TRKC (Homo sapiens (Human), UniProt Q16288); test: Kinome-wide profiling; conditions: read-out: % Residual Activity (mean)
CK1a1 = CK1a1 (Homo sapiens (Human), UniProt P48729); test: Kinome-wide profiling; conditions: read-out: % Residual Activity (mean)
PKCeta = PKCeta (Homo sapiens (Human), UniProt P24723); test: Kinome-wide profiling; conditions: read-out: % Residual Activity (mean)
GLK/MAP4K3 = GLK/MAP4K3 (Homo sapiens (Human), UniProt Q8IVH8); test: Kinome-wide profiling; conditions: read-out: % Residual Activity (mean)
ACK1 = ACK1 (Homo sapiens (Human), UniProt Q07912); test: Kinome-wide profiling; conditions: read-out: % Residual Activity (mean)
TLK1 = TLK1 (Homo sapiens (Human), UniProt Q9UKI8); test: Kinome-wide profiling; conditions: read-out: % Residual Activity (mean)
LRRK2 = LRRK2 (Homo sapiens (Human), UniProt Q5S007); test: Kinome-wide profiling; conditions: read-out: % Residual Activity (mean)
TRKB = TRKB (Homo sapiens (Human), UniProt Q16620); test: Kinome-wide profiling; conditions: read-out: % Residual Activity (mean)
TRKB, sequence (Q16620 32-822): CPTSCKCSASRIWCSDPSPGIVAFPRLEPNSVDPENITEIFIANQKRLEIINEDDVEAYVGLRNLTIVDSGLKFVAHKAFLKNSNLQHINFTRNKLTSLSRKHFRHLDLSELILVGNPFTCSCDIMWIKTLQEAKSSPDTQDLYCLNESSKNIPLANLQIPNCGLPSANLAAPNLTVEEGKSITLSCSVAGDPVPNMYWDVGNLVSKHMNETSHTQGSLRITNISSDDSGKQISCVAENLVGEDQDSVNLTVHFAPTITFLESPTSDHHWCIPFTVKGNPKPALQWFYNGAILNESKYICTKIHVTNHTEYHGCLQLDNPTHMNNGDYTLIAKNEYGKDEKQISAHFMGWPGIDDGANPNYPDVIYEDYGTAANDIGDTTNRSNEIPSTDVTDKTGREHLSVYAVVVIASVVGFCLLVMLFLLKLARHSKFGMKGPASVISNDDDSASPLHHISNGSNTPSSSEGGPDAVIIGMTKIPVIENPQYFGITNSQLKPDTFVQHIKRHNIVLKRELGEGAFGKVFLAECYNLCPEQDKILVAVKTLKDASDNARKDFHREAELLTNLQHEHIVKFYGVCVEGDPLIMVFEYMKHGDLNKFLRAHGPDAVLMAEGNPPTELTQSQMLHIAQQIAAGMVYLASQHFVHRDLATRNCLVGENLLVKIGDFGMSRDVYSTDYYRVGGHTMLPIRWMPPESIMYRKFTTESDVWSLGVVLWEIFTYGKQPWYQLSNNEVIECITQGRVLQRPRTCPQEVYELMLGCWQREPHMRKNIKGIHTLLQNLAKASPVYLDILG

p70S6Kb/RPS6KB2 = p70S6Kb/RPS6KB2 (Homo sapiens (Human), UniProt Q9UBS0); test: Kinome-wide profiling; conditions: read-out: % Residual Activity (mean)
PAK5 = PAK5 (Homo sapiens (Human), UniProt Q9P286); test: Kinome-wide profiling; conditions: read-out: % Residual Activity (mean)
LCK = LCK (Homo sapiens (Human), UniProt P06239); test: Kinome-wide profiling; conditions: read-out: % Residual Activity (mean)
RIPK5 = RIPK5 (Homo sapiens (Human), UniProt Q6XUX3); test: Kinome-wide profiling; conditions: read-out: % Residual Activity (mean)

CCn1cnc2c(NCc3ccc(-c4ccccn4)nc3)nc(-c3ccc(N)nc3)nc21 [Example 53, N-([2,2′-bipyridin]-5-ylmethyl)-2-(6-aminopyridin-3-yl)-9-ethyl-9H-purin-6-amine]
remaining activity at 10 µM (CLK2): 11.7% | remaining activity at 10 µM (SGK3/SGKL): 92.6% | remaining activity at 10 µM (CDK7/cyclin H): 3.81% | remaining activity at 10 µM (RON/MST1R): 86.8% | remaining activity at 10 µM (JNK2): 61.7% | remaining activity at 10 µM (IRR/INSRR): 31.1% | remaining activity at 10 µM (MEKK3): 94% | remaining activity at 10 µM (FLT1/VEGFR1): 36.3% | remaining activity at 10 µM (CK1d): 10.2% | remaining activity at 10 µM (BLK): 66.8% | remaining activity at 10 µM (CAMK2d): 61.7% | remaining activity at 10 µM (FER): 52.3% | kinase inhibition [1]: ≥ 90% | remaining activity at 10 µM (DMPK2): 92.4% | remaining activity at 10 µM (MRCKa/CDC42BPA): 96.6% | remaining activity at 10 µM (HIPK2): 81.3% | remaining activity at 10 µM (DCAMKL2): 55% | remaining activity at 10 µM (TNK1): 91.3% | remaining activity at 10 µM (NEK9): 90% | remaining activity at 10 µM (ERN2/IRE2): 65.4% | remaining activity at 10 µM (CDK4/cyclin D1): 33.5% | remaining activity at 10 µM (JAK3): 99.7% | remaining activity at 10 µM (MELK): 21.1% | remaining activity at 10 µM (CAMK1a): 34% | remaining activity at 10 µM (PAK4): 12.9% | remaining activity at 10 µM (CDK3/cyclin E2): 2.63% | remaining activity at 10 µM (TRKC): 54.9% | remaining activity at 10 µM (CK1a1): 26.5% | remaining activity at 10 µM (PKCeta): 87.9% | remaining activity at 10 µM (GLK/MAP4K3): 49.6% | remaining activity at 10 µM (ACK1): 13.7% | remaining activity at 10 µM (TLK1): 67.8% | remaining activity at 10 µM (LRRK2): 17.8% | remaining activity at 10 µM (TRKB): 16.5% | remaining activity at 10 µM (p70S6Kb/RPS6KB2): 92.2% | remaining activity at 10 µM (PAK5): 7.55% | remaining activity at 10 µM (LCK): 83.6% | remaining activity at 10 µM (RIPK5): 67.8%
